Broadly, the inhibition is how much of the control response was suppressed. A lower inhibition goes with a weak effect.

Structures are written as SMILES. Where only a bound is given, the exact number is not on record here.

Among the data in US8461176B2, “Enantiomerically enriched aryloazol-2-yl cyanoethylamino compounds, method of making and method of using thereof” (Merial Limited, priority 2008, dated 2013) are inhibition values, retold here.

One test has as its system Haemonchus contortus. Nature of the test: Method A: screening of activity against Haemonchus contortus L1 larvae in microtitre plate (development to L3 / motility). Particulars: Haemonchus contortus, 96 h; test concentration 0.0025 ppm; 4 days assessment. The text has this:
Method A: Screening Method to Test Activity of Compounds Against Haemonchus contortus.
`CC(C#N)(Cn1cc2c(Cl)cc(Cl)c(Cl)c2n1)NC(=O)c1ccc(Cl)cc1` (stereo not shown) [Compound 2.061, N-[1-Cyano-1-methyl-2-(4,6,7-trichloro-2H-indazol-2-yl)ethyl]-4-chlorobenzamide] came in with an inhibition at 0.0025 ppm not below 90%. On the same count and under the same terms, then `CC(C#N)(Cn1cc2c(Cl)cc(Cl)c(Cl)c2n1)NC(=O)c1ccc(C(F)(F)F)cc1` (stereo not shown) [Compound 2.062, N-[1-Cyano-1-methyl-2-(4,6,7-trichloro-2H-indazol-2-yl)ethyl]-4-trifluoromethylbenzamide], with not below 90%. `CC(C#N)(Cn1cc2c(Cl)cc(Cl)c(Cl)c2n1)NC(=O)c1ccc(C#N)cc1` (stereo not shown) [Compound 2.063, N-[1-Cyano-1-methyl-2-(4,6,7-trichloro-2H-indazol-2-yl)ethyl]-4-cyanobenzamide] displayed an inhibition at 0.0025 ppm not below 90%. The same measure, in the same setting: then `CC(C#N)(Cn1cc2c(Cl)cc(Cl)c(Cl)c2n1)NC(=O)c1ccc(OC(F)(F)C(F)F)cc1` (stereo not shown) [Compound 2.066, N-[1-Cyano-1-methyl-2-(4,6,7-trichloro-2H-indazol-2-yl)ethyl]-4-(1,1,2,2-tetrafluoroethoxy)benzamide], with not below 90%. Still for that read-out and setting: then `CC(C#N)(Cn1cc2c(Cl)cc(Cl)c(Cl)c2n1)NC(=O)c1ccc(I)cc1` (stereo not shown) [Compound 2.068, N-[1-Cyano-1-methyl-2-(4,6,7-trichloro-2H-indazol-2-yl)ethyl]-4-iodobenzamide], with not below 90%. The same measure, in the same setting: then `CC(C#N)(Cn1cc2ncc(I)cc2n1)NC(=O)c1ccc(OC(F)(F)F)cc1` (stereo not shown) [Compound 3.026, N-[1-Cyano-2-(6-iodo-2H-pyrazolo[4,3-b]pyridin-2-yl)-1-methylethyl]-4-trifluoromethoxybenzamide], with not below 90%.

Staying with this test, now noted: Haemonchus contortus, 96 h; test concentration 0.01 ppm; 4 days assessment.
In the case of `CC(C#N)(Cn1cc2c(Cl)cc(Cl)c(Cl)c2n1)NC(=O)c1ccc([N+](=O)[O-])cc1` (stereo not shown) [Compound 2.069, N-[1-Cyano-1-methyl-2-(4,6,7-trichloro-2H-indazol-2-yl)ethyl]-4-nitrobenzamide], the inhibition at 0.01 ppm is not below 90%.

With `CC(C#N)(Cn1cc2c(Cl)cc(Cl)c(Cl)c2n1)NC(=O)c1ccc(C(F)(F)F)cc1F` (stereo not shown) [Compound 2.187, N-[1-Cyano-1-methyl-2-(4,6,7-trichloro-2H-indazol-2-yl)ethyl]-2-fluoro-4-trifluoromethylbenzamide], the inhibition at 0.01 ppm is not below 90%.

Turning to `CC(C#N)(Cn1cc2c(Cl)cc(Cl)c(Cl)c2n1)NC(=O)c1ccc(C(F)(F)F)c(F)c1` (stereo not shown) [Compound 2.190, N-[1-Cyano-1-methyl-2-(4,6,7-trichloro-2H-indazol-2-yl)ethyl]-3-fluoro-4-trifluoromethylbenzamide], the inhibition at 0.01 ppm was not below 90%.

In turn, `CC(C#N)(Cn1nc2cc(Cl)cnc2c1Br)NC(=O)c1ccc(OC(F)(F)F)cc1` (stereo not shown) [Compound 3.019, N-[2-(3-Bromo-6-chloro-2H-pyrazolo[4,3-b]pyridin-2-yl)-1-cyano-1-methylethyl]-4-trifluoromethoxybenzamide] showed an inhibition at 0.01 ppm not below 90%. On the same count and under the same terms, then `CC(C#N)(Cn1cc2ncc(Br)cc2n1)NC(=O)c1ccc(Oc2ccccc2)cc1` (stereo not shown) [Compound 3.048, N-[2-(6-Bromo-2H-pyrazolo[4,3-b]pyridin-2-yl)-1-cyano-1-methylethyl]-4-phenoxybenzamide], with not below 90%. On the same count and under the same terms, then `COc1nc2cn(CC(C)(C#N)NC(=O)c3ccc(OC(F)(F)F)cc3)nc2cc1Br` (stereo not shown) [Compound 3.052, N-[2-(6-Bromo-5-methoxy-2H-pyrazolo[4,3-b]pyridin-2-yl)-1-cyano-1-methylethyl]-4-trifluoromethoxybenzamide], with not below 90%.

The same test, now with this note: Haemonchus contortus, 96 h; test concentration 0.04 ppm; 4 days assessment.
The molecule `CC(C#N)(Cn1cc2c(Cl)cc(Cl)c(Cl)c2n1)NC(=O)c1ccc(Oc2ccccc2)cc1` (stereo not shown) [Compound 2.067, N-[1-Cyano-1-methyl-2-(4,6,7-trichloro-2H-indazol-2-yl)ethyl]-4-phenoxybenzamide] had an inhibition at 0.04 ppm not below 90%. On the same count and under the same terms, then `CC(C#N)(Cn1cc2c(Cl)cc(Cl)c(Cl)c2n1)NC(=O)c1ccc(F)cc1F` (stereo not shown) [Compound 2.228, N-[1-Cyano-1-methyl-2-(4,6,7-trichloro-2H-indazol-2-yl)ethyl]-2,4-difluorobenzamide], with not below 90%; and `CC(C#N)(Cn1cc2c(Cl)cc(Cl)c(Cl)c2n1)NC(=O)c1ccc(Cl)cc1Cl` (stereo not shown) [Compound 2.230, 2,4-Dichloro-N-[1-cyano-1-methyl-2-(4,6,7-trichloro-2H-indazol-2-yl)ethyl]benzamide], with not below 90%; and `CC(C#N)(Cn1cc2ncc(Br)cc2n1)NC(=O)c1ccc(C(F)(F)F)cc1` (stereo not shown) [Compound 3.047, N-[2-(6-Bromo-2H-pyrazolo[4,3-b]pyridin-2-yl)-1-cyano-1-methylethyl]-4-trifluoromethylbenzamide], with not below 90%. The same measure, in the same setting: under `CC(C#N)(Cn1cc2ncc(Br)cc2n1)NC(=O)c1ccc(I)cc1` (stereo not shown) [Compound 3.049, N-[2-(6-Bromo-2H-pyrazolo[4,3-b]pyridin-2-yl)-1-cyano-1-methylethyl]-4-iodobenzamide] stands not below 90%; under `CC(C#N)(Cn1cc2ncc(Br)cc2n1)NC(=O)c1ccc(OC(F)(F)F)cc1F` (stereo not shown) [Compound 3.056, N-[2-(6-Bromo-2H-pyrazolo[4,3-b]pyridin-2-yl)-1-cyano-1-methylethyl]-2-fluoro-4-trifluoromethoxybenzamide], not below 90%.

The same test, now with this note: Haemonchus contortus, 96 h; test concentration 0.15 ppm; 4 days assessment.
Molecule `CCOc1c2ccc(Cl)cc2nn1CC(C)(C#N)NC(=O)c1ccc(OC(F)(F)F)cc1` (stereo not shown) [Compound 2.027, N-[2-(6-Chloro-3-ethoxy-2H-indazol-2-yl)-1-cyano-1-methylethyl]-4-trifluoromethoxybenzamide] had an inhibition at 0.15 ppm not below 90%.

`COc1ccc(C(=O)NC(C)(C#N)Cn2cc3c(Cl)cc(Cl)c(Cl)c3n2)cc1F` (stereo not shown) [Compound 2.227, N-[1-Cyano-1-methyl-2-(4,6,7-trichloro-2H-indazol-2-yl)ethyl]-3-fluoro-4-methoxybenzamide] came in with an inhibition at 0.15 ppm not below 90%. For the molecule `CC(C#N)(Cn1cc2c(Cl)cc(Cl)c(Cl)c2n1)NC(=O)c1cccc(Br)c1` (stereo not shown) [Compound 2.229, 3-Bromo-N-[1-cyano-1-methyl-2-(4,6,7-trichloro-2H-indazol-2-yl)ethyl]benzamide], the inhibition at 0.15 ppm is not below 90%. The same measure, in the same setting: under `CC(C#N)(Cn1cc2ncc(Br)cc2n1)NC(=O)c1ccc(Cl)cc1` (stereo not shown) [Compound 3.046, N-[2-(6-Bromo-2H-pyrazolo[4,3-b]pyridin-2-yl)-1-cyano-1-methylethyl]-4-chlorobenzamide] stands not below 90%; under `CC(C#N)(Cn1cc2ncc(Br)cc2n1)NC(=O)c1ccc(-c2ccccc2)cc1` (stereo not shown) [Compound 3.050, N-[2-(6-Bromo-2H-pyrazolo[4,3-b]pyridin-2-yl)-1-cyano-1-methylethyl]-biphenyl-4-carboxamide], not below 90%.

The test is the same for the next values; noted with them: Haemonchus contortus, 96 h; test concentration 0.6 ppm; 4 days assessment.
In the case of `CCCOc1c2ccc(Cl)cc2nn1CC(C)(C#N)NC(=O)c1ccc(OC(F)(F)F)cc1` (stereo not shown) [Compound 2.029, N-[2-(6-Chloro-3-propoxy-2H-indazol-2-yl)-1-cyano-1-methylethyl]-4-trifluoromethoxybenzamide], the inhibition at 0.6 ppm is not below 90%. The same measure, in the same setting: under `CCCCOc1c2ccc(Cl)cc2nn1CC(C)(C#N)NC(=O)c1ccc(OC(F)(F)F)cc1` (stereo not shown) [Compound 2.031, N-[2-(6-Chloro-3-butoxy-2H-indazol-2-yl)-1-cyano-1-methylethyl]-4-trifluoromethoxybenzamide] stands not below 90%; under `CC(C#N)(Cn1cc2nc(Br)c(Br)cc2n1)NC(=O)c1ccc(OC(F)(F)F)cc1` (stereo not shown) [Compound 3.042, N-[1-Cyano-2-(5,6-dibromo-2H-pyrazolo[4,3-b]pyridin-2-yl)-1-methylethyl]-4-trifluoromethoxybenzamide], not below 90%; under `CC(C#N)(Cn1cc2nc(Br)ccc2n1)NC(=O)c1ccc(OC(F)(F)F)cc1` (stereo not shown) [Compound 3.044, N-[1-Cyano-2-(5-bromo-2H-pyrazolo[4,3-b]pyridin-2-yl)-1-methylethyl]-4-trifluoromethoxybenzamide], not below 90%. As for `CC(C#N)(Cn1cc2ncccc2n1)NC(=O)c1ccc(OC(F)(F)F)cc1` (stereo not shown) [Compound 3.045, N-[1-Cyano-1-methyl-2-(2H-pyrazolo[4,3-b]pyridin-2-yl)ethyl]-4-trifluoromethoxybenzamide], the inhibition at 0.6 ppm was not below 90%. Same read-out and setting: under `CCCCCCc1ccc(C(=O)NC(C)(C#N)Cn2cc3ncc(Br)cc3n2)cc1` (stereo not shown) [Compound 3.051, N-[2-(6-Bromo-2H-pyrazolo[4,3-b]pyridin-2-yl)-1-cyano-1-methylethyl]-4-hexylbenzamide] stands not below 90%. Still for that read-out and setting: then `CC(C#N)(Cn1cc2ccnc(Br)c2n1)NC(=O)c1ccc(OC(F)(F)F)cc1` (stereo not shown) [Compound 4.005, N-[2-(7-Bromo-2H-pyrazolo[3,4-c]pyridin-2-yl)-1-cyano-1-methylethyl]-4-trifluoromethoxybenzamide], with not below 90%; and `CC(C#N)(Cn1cc2cc(Br)cnc2n1)NC(=O)c1ccc(OC(F)(F)F)cc1` (stereo not shown) [Compound 5.001, N-[2-(5-Bromo-2H-pyrazolo[3,4-b]pyridin-2-yl)-1-cyano-1-methylethyl]-4-trifluoromethoxybenzamide], with not below 90%.
